Data as given in patent US5428031A, “Methods of treating cardiac arrhythmia” (priority 1993, dated 1995).

System: IK1 (inward rectifier K+ current)
Experiment: voltage clamp measurement of IK1 block in isolated guinea pig ventricular myocytes
Assay type: cell-based
Settings: 1 μM
Method: Guinea pig ventricular myocytes were isolated using a modification of the procedure described by Mitra R and Morad M., "A Uniform Enzymatic Method for Dissociation of Myocytes from Hearts and Stomachs of Nertilorates", Am. J. Physiol. 249:H1056-60 (1985). Excised hearts were perfused through the aorta (retrograde fashion) at a rate of 10 ml/min with oxygenated, warmed (37° C.) solutions described below. The heart was initially perfused for 7 minutes with a Tyrode's solution containing, in mM: 132 NaCl, 4 KCl, 1.2 MgCl2, 10 HEPES (formal name N-2-Hydroxyethylpiperazine-N-2-ethanesulfonic acid), 5 glucose, pH=7.2. The head was then perfused with the same nominally Ca^2+ -free solution containing 150 units/ml Type II collagenase (Worthington) and 0.5 units/ml Type XIV protease (Sigma) for 8 minutes. This perfusate was followed by a Tyrode's solution containing 0.2 mM CaCl2 (without enzymes) for 5 minutes. The digested ventricles were cut into small pieces and gently shaken until cells were visibly dispersed. […]
The suction microelectrode technique described by Giles, W. R. and Shibata, E. F., "Voltage clamp of bull-frog cardiac pacemaker cells: a quantitative, analysis of potassium currents". […]
To record K^+ currents, the cells were bathed in a Ca^2+ -free Tyrode's :solution containing […] nisoldipine. […] Data was analyzed as % block from control membrane currents. […]

SMILES: Cc1cccc(NC(=O)N[C@@H]2N=C(c3ccccc3)c3ccccc3N(C)C2=O)c1 [Compound 4, (R)-N-(2,3-dihydro-1-methyl-2-oxo-5-phenyl-1H-1,4-benzodiazepin-3-yl)-N'-(3-methylphenyl)urea]
- effect on IK1: Little or no effect
